Measurements taken from US20230256108A1, “A DRUG CONJUGATE AND APPLICATIONS THEREOF” (GENEQUANTUM HEALTHCARE (SUZHOU) CO., LTD., priority 2019, published 2023).
Read-outs that look alike come from different tables or passages of the source. Non-standard residues stand in square brackets, D forms with d. Residues, ends and D or L forms follow the SMILES beside them. *: point of attachment. Dolaproine = CO[C@@H]([C@@H]1CCCN1)[C@@H](C)C(=O)O; Hexanoyl(6-maleimido) = O=C1C=CC(=O)N1CCCCCC(=O)*; Dil = CC[C@H](C)[C@H](NC)[C@@H](CC(=O)O)OC; NMeV = CN[C@H](C(=O)O)C(C)C

Experiments:
BT-474 = assay: Cytotoxicity, HER2 high-expressing cancer cells; assay type: cell-based
NCI-N87 = assay: Cytotoxicity, HER2 high-expressing cancer cells; assay type: cell-based, human
HCC1954 = assay: Cytotoxicity, HER2 high-expressing cancer cells; assay type: cell-based, human
SK-BR-3 = assay: Cytotoxicity, HER2 high-expressing cancer cells; assay type: cell-based, human
MDA-MB-231 = assay: Cytotoxicity, HER2 low-expressing or HER2-negative cells; assay type: cell-based; settings: Homo sapiens
Experimental: (§1) Cytotoxicity experiments were performed using human breast cancer cells MDA-MB-231, MDA-MB-468, which are HER2 low-expressing or HER2-negative.

MDA-MB-468 = assay: as above; assay type: cell-based; settings: Homo sapiens
Experimental: as §1

Compound	IC50 (BT-474) [nM]	IC50 (NCI-N87) [nM]	IC50 (HCC1954) [nM]	IC50 (SK-BR-3) [nM]	IC50 (MDA-MB-231) [nM]	IC50 (MDA-MB-468) [nM]	IC50 (BT-474; Homo sapiens, BT-474) [nM]	IC50 (NCI-N87; Homo sapiens, NCI-N87) [nM]	IC50 (HCC1954; Homo sapiens, HCC1954) [nM]	IC50 (SK-BR-3; Homo sapiens, SK-BR-3) [nM]
COc1cc2cc(c1Cl)N(C)C(=O)C[C@H](OC(=O)[C@H](C)N(C)C(=O)CCS)[C@]1(C)O[C@H]1[C@H](C)[C@@H]1C[C@@](O)(NC(=O)O1)[C@H](OC)/C=C/C=C(\C)C2 [DM1]	6.24	6.97	2.67	1.92						
CC[C@H](C)[C@@H]([C@@H](CC(=O)N1CCC[C@H]1[C@H](OC)[C@@H](C)C(=O)N[C@@H](Cc1ccccc1)C(=O)O)OC)N(C)C(=O)[C@H](NC(=O)[C@H](C(C)C)N(C)C(=O)CCCCCN1C(=O)CC(SCC(NC(=O)CCOCCOCCOCCOCCNC(=O)CNC(=O)CNC(=O)CN)C(N)=O)C1=O)C(C)C (stereo partly drawn) [IM102 (ring closed)]					1710	1080	267	690	160	383
CC[C@H](C)[C@@H]([C@@H](CC(=O)N1CCC[C@H]1[C@H](OC)[C@@H](C)C(=O)N[C@@H](Cc1ccccc1)C(=O)O)OC)N(C)C(=O)[C@@H](NC(=O)[C@@H](NC)C(C)C)C(C)C [MMAF, monomethyl auristatin F] (H-[NMeV]V[Dil][Dolaproine]F-OH)	44.7	41.4	39.6	54.3						
CC[C@H](C)[C@@H]([C@@H](CC(=O)N1CCC[C@H]1[C@H](OC)[C@@H](C)C(=O)N[C@@H](Cc1ccccc1)C(=O)O)OC)N(C)C(=O)[C@@H](NC(=O)[C@H](C(C)C)N(C)C(=O)CCCCCN1C(=O)C=CC1=O)C(C)C [mc-MMAF] ({Hexanoyl(6-maleimido)}-[NMeV]V[Dil][Dolaproine]F-OH)	56.1	208	116	98.6						
